Target: T1, P2X7 (UniProt Q99572)
T1 sequence (Q99572 1-595): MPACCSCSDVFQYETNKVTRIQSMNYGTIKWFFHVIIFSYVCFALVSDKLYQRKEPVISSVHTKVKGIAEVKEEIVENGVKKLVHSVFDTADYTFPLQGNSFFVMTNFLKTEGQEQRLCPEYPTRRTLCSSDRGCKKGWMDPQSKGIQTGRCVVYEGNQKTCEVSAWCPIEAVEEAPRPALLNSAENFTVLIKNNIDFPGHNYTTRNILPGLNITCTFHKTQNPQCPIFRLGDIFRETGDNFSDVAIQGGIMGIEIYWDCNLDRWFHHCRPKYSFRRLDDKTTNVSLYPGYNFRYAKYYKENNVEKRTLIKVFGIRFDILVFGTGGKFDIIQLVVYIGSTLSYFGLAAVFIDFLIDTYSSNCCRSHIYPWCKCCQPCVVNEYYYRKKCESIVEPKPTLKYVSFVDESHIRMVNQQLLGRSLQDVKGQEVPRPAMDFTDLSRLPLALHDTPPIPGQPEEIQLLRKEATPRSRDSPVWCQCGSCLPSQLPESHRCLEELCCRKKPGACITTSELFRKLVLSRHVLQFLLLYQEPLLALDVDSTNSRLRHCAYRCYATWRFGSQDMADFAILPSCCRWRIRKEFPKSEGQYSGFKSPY
Assay: P2X7 pKi of Table 1
Format: cell-based
Method in brief: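 Human P2X7 in 1321N1 cells and rat P2X7 in HEK293 cells, loaded with fluo-3 for 1 hr at 37° C, then exposed to antagonist for 20 min at room temperature. BzATP agonist was used at 100 μM final (human) or 5 μM final (rat), with fluorescence read for 5 min. The response was normalized to maximal fluorescence evoked by 5 μM ionomycin.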

pKi | SMILES
7.285 | Cc1cc(F)c(OCCO)cc1NC(=O)C1=CNC(=O)C[C@H]1c1ccc(F)cc1 [Compound 141, (S)-4-(4-Fluoro-phenyl)-6-oxo-1,4,5,6-tetrahydro-pyridine-3-carboxylic acid[4-fluoro-5-(2-hydroxy-ethoxy)-2-methyl-phenyl]-amide]
6.835 | Cc1cc(Cl)c(OCCO)cc1NC(=O)C1=CN(C)C(=O)C[C@H]1c1ccc(F)cc1 [Compound 142, (S)-4-(4-Fluoro-phenyl)-1-methyl-6-oxo-1,4,5,6-tetrahydro-pyridine-3-carboxylic acid[4-chloro-5-(2-hydroxy-ethoxy)-2-methyl-phenyl]-amide]
6.535 | Cc1cc(F)c(OCCO)cc1NC(=O)C1=CN(C)C(=O)C[C@H]1c1ccc(F)cc1 [Compound 143, (S)-4-(4-Fluoro-phenyl)-1-methyl-6-oxo-1,4,5,6-tetrahydro-pyridine-3-carboxylic acid[4-fluoro-5-(2-hydroxy-ethoxy)-2-methyl-phenyl]-amide]
6.49 | COC[C@@H](O)COc1cc(NC(=O)C2=CNC(=O)C[C@H]2c2ccc(F)cc2)c(C)cc1Cl [Compound 148, (S)-4-(4-Fluoro-phenyl)-6-oxo-1,4,5,6-tetrahydro-pyridine-3-carboxylic acid[4-chloro-5-((S)-2-hydroxy-3-methoxy-propoxy)-2-methyl-phenyl]-amide]

Further lines, the compound ahead of its results:

SMILES | pKi
Cc1cc2c(cc1NC(=O)C1=CNC(=O)C[C@H]1c1ccc(F)cc1)OCCO2 [Compound 140, (S)-4-(4-Fluoro-phenyl)-6-oxo-1,4,5,6-tetrahydro-pyridine-3-carboxylic acid(7-methyl-2,3-dihydro-benzo[1,4]dioxin-6-yl)-amide] | 6.94
CCN1C=C(C(=O)Nc2cc(OC)c(OC)cc2C)[C@H](c2ccc(F)cc2)CC1=O [Compound 144, (S)-1-Ethyl-4-(4-fluoro-phenyl)-6-oxo-1,4,5,6-tetrahydro-pyridine-3-carboxylic acid(4,5-dimethoxy-2-methyl-phenyl)-amide] | 7.06
CCOC(=O)Cc1ccc(C)c(NC(=O)C2=CNC(=O)C[C@H]2c2ccc(F)cc2)c1 [Compound 145, (3-{[(S)-4-(4-Fluoro-phenyl)-6-oxo-1,4,5,6-tetrahydro-pyridine-3-carbonyl]-amino}-4-methyl-phenyl)-acetic acid ethyl ester] | 6.55
COc1cc(C)c(NC(=O)C2=CN(CCO)C(=O)C[C@H]2c2ccc(F)cc2)cc1OC [Compound 146, (S)-4-(4-Fluoro-phenyl)-1-(2-hydroxy-ethyl)-6-oxo-1,4,5,6-tetrahydro-pyridine-3-carboxylic acid(4,5-dimethoxy-2-methyl-phenyl)-amide] | 7.71
COC[C@@H](O)COc1cc(NC(=O)C2=CN(C)C(=O)C[C@H]2c2ccc(F)cc2)c(C)cc1Cl [Compound 147, (S)-4-(4-Fluoro-phenyl)-1-methyl-6-oxo-1,4,5,6-tetrahydro-pyridine-3-carboxylic acid[4-chloro-5-((S)-2-hydroxy-3-methoxy-propoxy)-2-methyl-phenyl]-amide] | 5.85
COC[C@@H](O)COc1cc(NC(=O)C2=CN(C)C(=O)C[C@H]2c2cccc(F)c2)c(C)cc1Cl [Compound 149, (S)-4-(3-Fluoro-phenyl)-1-methyl-6-oxo-1,4,5,6-tetrahydro-pyridine-3-carboxylic acid[4-chloro-5-((S)-2-hydroxy-3-methoxy-propoxy)-2-methyl-phenyl]-amide] | 6.035

Reference: patent publication US8288552B2, “Dihydropyridone amidesas P2X7 modulators” (Roche Palo Alto LLC, priority 2008, dated 2012)
